Measurements from patent US5464616A, “6β-substituted penicillanic acids as beta-lactamase inhibitors” (Synphar Laboratories, Ind., priority 1994, dated 1995).

What was measured:
[1] = target: T1, cephalosporinase, which was isolated from Enterobacter cloacae (Enterobacter cloacae, UniProt P05364); assay: inhibition of representative cephalosporinase isolated from Enterobacter cloacae; type: biochemical; details: read-out: IC50 against representative cephalosporinase
T1 construct: which was isolated from Enterobacter cloacae; endogenous in cells; host or cells: Enterobacter cloacae
Description: […]. Because of such differences in IC50 value against different types of β-lactamases, these inhibitors are regarded as selective cephalosporinase-inhibitors at the low concentration.

Gram-negative bacteria = assay: whole cell bacteria: antibacterial activity of the inhibitors alone and synergy with cephalothin; type: cell-based; details: for synergistic activity against Gram-negative bacteria: in combination with cephalothin, whole cell bacteria; for antibacterial activity of the inhibitors themselves: inhibitor alone
E. aerogenes S95 = assay: MIC of cephalothin alone and in combination with inhibitor, E. aerogenes S95 (microbroth dilution); type: cell-based; details: Klebsiella aerogenes, cephalothin alone, MHB, 5 × 10^5 cfu/ml, 16 h/35° C.
Procedure: (§1) MIC values of cephalothin in combination with
(§2) β-lactamase inhibitors Ia and Ic.
(§3) Microbroth Dilution Method, MHB; Inoculum, 5 × 10^5 cfu/ml;
(§4) Incubation, 16 h/35° C.;
(§5) *Concentration of inhibitor = 5 mg/ml (fixed).

C. freundii S40 = assay: MIC of cephalothin alone and in combination with inhibitor, C. freundii S40 (microbroth dilution); type: cell-based; details: Citrobacter freundii, cephalothin alone, MHB, 5 × 10^5 cfu/ml, 16 h/35° C.
Procedure: as §1, §2, §3, §4, §5

[2] = system: class C cephalosporinases; details: chromosomally encoded inducible cephalosporinases; cited from earlier work
bacteria = details: in combination with amoxycillin, ampicillin, piperacillin, respectively; cited from earlier work

T1 sequence (P05364 21-381): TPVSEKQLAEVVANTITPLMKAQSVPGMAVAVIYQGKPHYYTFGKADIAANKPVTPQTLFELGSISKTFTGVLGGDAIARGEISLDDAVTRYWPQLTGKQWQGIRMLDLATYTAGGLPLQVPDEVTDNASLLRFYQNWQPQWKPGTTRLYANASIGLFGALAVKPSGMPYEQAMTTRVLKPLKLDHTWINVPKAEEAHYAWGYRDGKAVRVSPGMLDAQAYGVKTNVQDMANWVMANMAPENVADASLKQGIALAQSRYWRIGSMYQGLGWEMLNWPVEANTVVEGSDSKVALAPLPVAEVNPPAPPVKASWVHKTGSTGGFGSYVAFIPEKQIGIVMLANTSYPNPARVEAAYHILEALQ

| SMILES | IC50 [1] [nM] | protection of antibiotics from class C cephalosporinases [2] | enhancement of effectiveness of conventional antibiotics (bacteria) | other results |
| --- | --- | --- | --- | --- |
| CCOC(=O)C(C(=O)N[C@@H]1C(=O)N2[C@@H](C(=O)O)C(C)(C)S(=O)(=O)[C@H]12)=C1SCCS1 [Id, 6β-[(1,3-Dithiolan-2-ylidene)(ethoxycarbonyl)acetamido]-2,2-dimethylpenam-3-carboxylic acid 1,1-dioxide] | 150 | – | – | – |
| COC(=O)C(C(=O)N[C@@H]1C(=O)N2[C@@H]1SC(C)(C)[C@@H]2C(=O)O)=C1SCCS1 [Ia, 6β-[(1,3-Dithiolan-2-ylidene)(methoxycarbonyl)acetamido]-2,2-dimethylpenam-3-carboxylic acid] | 0.61 | – | – | synergistic activity against Gram-negative bacteria (Gram-negative bacteria): synergistic activity; antibacterial activity of the inhibitors themselves (Gram-negative bacteria): no antibacterial activity at the concentration up to 128 mg/ml |
| CC1(C)S[C@@H]2[C@H](NC(=O)C(C(=O)O)=C3SCCS3)C(=O)N2[C@H]1C(=O)O [Ic, Disodium 6β-[carboxylato(1,3-dithiolan-2-ylidene)acetamido]-2,2-dimethylpenam-3-carboxylate] | 9.1 | – | – | synergistic activity against Gram-negative bacteria (Gram-negative bacteria): synergistic activity; antibacterial activity of the inhibitors themselves (Gram-negative bacteria): no antibacterial activity at the concentration up to 128 mg/ml |
| CC(=O)OCC1=C(C(=O)O)N2C(=O)[C@@H](NC(=O)Cc3cccs3)[C@H]2SC1 [Cephalothin] | – | – | – | MIC (E. aerogenes S95): > 256 µg/mL; MIC (C. freundii S40): 256 µg/mL |
| C[C@]1(Cn2ccnn2)[C@H](C(=O)O)N2C(=O)C[C@H]2S1(=O)=O [tazobactam] | – | failed to protect the antibiotics | proved to enhance the effectiveness of conventional antibiotics against many bacteria | – |
| C=CCOC(=O)C(C(=O)N[C@@H]1C(=O)N2[C@@H]1SC(C)(C)[C@@H]2C(=O)O)=C1SC=CS1 [IIa, 6β-[(Allyloxycarbonyl)(1,3-dithiolen-2-ylidene)acetamido]-2,2-dimethylpenam-3-carboxylic acid] | 7 | – | – | – |
| CC1(C)[C@H](C(=O)O)N2C(=O)C[C@H]2S1(=O)=O [sulbactam] | – | failed to protect the antibiotics | proved to enhance the effectiveness of conventional antibiotics against many bacteria | – |
| CCOC(=O)C(C(=O)N[C@@H]1C(=O)N2[C@@H]1SC(C)(C)[C@@H]2C(=O)O)=C1SCCS1 [Ib, 6β-[(1,3-Dithiolan-2-ylidene)(ethoxycarbonyl)acetamido]-2,2-dimethylpenam-3-carboxylic acid] | 0.49 | – | – | – |
| O=C(O)[C@H]1/C(=C/CO)O[C@@H]2CC(=O)N21 [clavulanic acid] | – | failed to protect the antibiotics | proved to enhance the effectiveness of conventional antibiotics against many bacteria | – |
